Laboratory results from patent US6939855B2, “Anti-inflammatory compositions and method” (Elan Pharmaceuticals, Inc., priority 1997, dated 2005).

System: human neutrophils
Assay: Expression of alpha-9 integrin on human neutrophils following activation
Type: cell-based
Details: compared to isotype control marker (FIG. 2)
Protocol: In this experiment, alpha-9 subunit, alpha-4 subunit and beta-1 subunit were measured after reacting human neutrophils with fluorescently labeled antibodies specifically reactive with each of the foregoing subunits.
Formyl-Met-Leu-Phe (fMLP) is an activation factor that is involved in inflammation. […] This increased expression is consistent with alpha-9 involvement in activation of neutrophils during inflammation.

In the case of Formyl-Met-Leu-Phe [fMLP], the “alpha-9 integrin expression following activation” value is reported as “significantly and selectively increased”.
